In ChEMBL document CHEMBL1126951, “Structure-based design of inhibitors of purine nucleoside phosphorylase. 2. 9-Alicyclic and 9-heteroalicyclic derivatives of 9-deazaguanine” (J Med Chem, 1993) one finds IC50 data, which are given here for nine compounds.

SMILES strings stand for the structures.

Assay [1] addresses T1, Purine nucleoside phosphorylase (Bos taurus, UniProt P55859).
T1 sequence (P55859 whole entry): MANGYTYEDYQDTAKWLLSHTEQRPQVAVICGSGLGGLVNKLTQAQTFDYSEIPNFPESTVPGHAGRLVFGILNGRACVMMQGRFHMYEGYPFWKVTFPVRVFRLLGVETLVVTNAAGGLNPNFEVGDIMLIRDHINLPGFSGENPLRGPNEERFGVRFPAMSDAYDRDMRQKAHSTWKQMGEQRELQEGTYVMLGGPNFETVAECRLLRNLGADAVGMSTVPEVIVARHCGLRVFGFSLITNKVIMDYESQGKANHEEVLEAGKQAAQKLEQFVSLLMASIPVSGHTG
Kind of assay: Inhibition of purine nucleoside phosphorylase from calf spleen in 50 mM phosphate.

Assay [2] addresses T1, Purine nucleoside phosphorylase. Nature of the assay: biochemical.
Description: In vitro inhibition of purine nucleoside phosphorylase from calf spleen in 1 mM phosphate

Regarding `Nc1nc2c(CC3CCCO3)c[nH]c2c(=O)[nH]1` (centres undefined), the IC50 in assay [1] turned out to be 300 nM; in assay [2], 70 nM.

Turning to `Nc1nc(O)c2[nH]c(N)c(CC3CCCCC3)c2n1`, the figures for the IC50 in assay [1] and in assay [2] were 150000 nM and 6600 nM, respectively.

With `Nc1nc2c(CC3CCCCCC3)c[nH]c2c(=O)[nH]1`, the IC50 in assay [1] was determined as 860 nM.

Regarding `Nc1nc(O)c2[nH]cc(C3=CCCCC3)c2n1`, the figures for the IC50 in assay [1] and in assay [2] were 19000 nM and 1900 nM, respectively.

For `Nc1nc2c(CC3CCCNC3)c[nH]c2c(=O)[nH]1` (centres undefined), the IC50 in assay [1] and in assay [2] was 1000 nM throughout.

In turn, `Nc1nc(O)c2[nH]cc(C3CCCCC3)c2n1` displayed an IC50 in assay [1] of 150000 nM.

Consider `Nc1nc2c(CC3CCCS3)c[nH]c2c(=O)[nH]1` (centres undefined), for which the figures for the half-inhibitory concentration (IC50) in assay [1] and in assay [2] were 220 nM and 11 nM, respectively.

As to `CC1CCCC(Cc2c[nH]c3c(=O)[nH]c(N)nc23)C1` (centres undefined), in assay [1], the concentration for half-maximal inhibition (IC50) amounted to 820 nM.

`Nc1nc(O)c2[nH]cc(CC3CCCSS3)c2n1` (centres undefined): the midpoint of inhibition in assay [1], the IC50, lay at 200 nM.
